We go through two compounds from patent publication US20020128228A1, “Compositions and methods for the treatment of cancer” (priority 2000, published 2002).

Read-outs that look alike come from different tables or passages of the source.

For data set [1] the following is noted: after intravenous administration; cited from earlier work.
For data set [2] the following is noted: single dose schedule, cited from earlier work.

Consider `O=C1CCC(N2C(=O)c3ccccc3C2=O)C(=O)N1` (racemic) [thalidomide, 2-(2,6-dioxo-3-piperidinyl)-1H-isoindole-1,3(2H)-dione], for which the recurrence entry with malignant melanoma (single treatment with thalidomide continued for one year) is recorded as “only recurrence in the leg”. In addition, the metastases and adenopathy result with malignant melanoma (thalidomide alone, maximum 200 mg/d, after dacarbazine was discontinued, additional 3 months) is “resolution of the metastases continued and virtually no adenopathy was detected”.
For `Cn1nnc2c(C(N)=O)ncn2c1=O` [temozolomide, 8-carbamoyl-3-methyl-imidazo-[5.1.d]-1,2,3,5-tetrazin-4(3H)-one], in data set [1], the “half life distribution (plasma, biexponential decline)” value is recorded as 1.8 h. Besides, the nausea and vomiting result is “mild” in data set [2] (dosages up to 700 mg/m^2) and “Grade 4 toxicity” in data set [2] (doses higher than 700 mg/m^2).
